From patent US11713293B2, “Substituted biaryl sulfonamides and the use thereof” (NovoMedix, LLC, priority 2012, dated 2023) come the findings set out here.

A value given as a limit tells only on which side of the number the result lay.

Broadly, the IC50 is the concentration that inhibits the measured activity by half. A low value points to inhibition by little substance.

In data set [1] the test system is triple negative breast cancer cell line MDA-MB-468. As to the kind of experiment: Cell-based IC50 assay, adherent cells, MDA-MB-468. Conditions: Homo sapiens, 72 hours, CellTiter 96 Aqueous One, metabolically active cells decreased by 50%. As for the experimental part: (§1) In one embodiment, the IC50s of the compounds provided herein were determined in cell-based assays using adherent cells. In one embodiment, the activity of the compounds provided herein were determined in a cell-based assay using the triple negative breast cancer cell line MDA-MB-468. In one embodiment, the activity of the compounds provided herein were determined in a cell-based assay using the triple negative breast cancer cell line MDA-MB-231. In one embodiment, the activity of the compounds provided herein were determined in a cell-based assay using the triple negative breast cancer cell line 4T1.
(§2) In one embodiment, the cell-based assay may be carried out as provided herein. On day 0, cells were seeded at 20,000 cells per well in 100 μL of media into individual wells of a 96-well tissue culture plate. The next day, compounds were diluted to twice the desired final concentration and added in 100 μL of media for a final volume of 200 μL. Standard solutions for each compound were prepared at 1000× concentration in DMSO. The highest concentration was […]. Serial 1:1 dilutions were made from there for a 6- or 9-point curve (e.g., 20 mM, 10 mM, 5 mM, etc). Compounds were then diluted 1:500 in media, and 100 μL of the resulting solution was added to each well for a final dilution of 1:1000. Each concentration of compound was tested in triplicate. Cells were incubated at 37° C. with 5% CO2. After 72 hours, 20 μL of CellTiter 96 Aqueous One Solution Cell Proliferation Assay (Promega) was added to each well. Cells were placed back in the incubator, and the absorbance at 490 nm was read after 2-3 hours. The concentration of compound that decreased the number of metabolically active cells by 50% was determined and reported as the IC50. “Percent Viability” was determined by subtracting the average background value (media only) and expressed as a ratio to the average value obtained from cells treated with only DMSO.
The IC50s of the compounds provided herein and some reference compounds were determined in cell-based assay using triple negative breast cancer cell line MDA-MB-468.

Data set [2] concerns triple negative breast cancer cell line MDA-MB-231. The data set can be described thus: Cell-based IC50 assay, adherent cells, MDA-MB-231. Conditions: Homo sapiens, 72 hours, CellTiter 96 Aqueous One. As for the experimental part:
as §1, §2

Data set [3] has as its system triple negative breast cancer cell line 4T1. The data set can be described thus: Cell-based IC50 assay, adherent cells, 4T1. Conditions: 72 hours, CellTiter 96 Aqueous One. As for the experimental part:
as §1
In one embodiment, the cell-based assay may be carried out as provided herein. On day 0, cells were seeded at 20,000 cells per well in 100 μL of media into individual wells of a 96-well tissue culture plate. The next day, compounds were diluted to twice the desired final concentration and added in 100 μL of media for a final volume of 200 μL. Standard solutions for each compound were prepared at 1000× concentration in DMSO. The highest concentration was 30 mM. […] Cells were placed back in the incubator, and the absorbance at 490 nm was read after 2-3 hours. […] “Percent Viability” was determined by subtracting the average background value (media only) and expressed as a ratio to the average value obtained from cells treated with only DMSO.

Data set [4] is described as follows: PK study and oral bioavailability, mouse. Format: in vivo. Conditions: plasma 0 to 6 h.
A short description of data set [5]: PK study and oral bioavailability, rat. The format is in vivo. Conditions: plasma 0 to 6 h.
For data set [6], the system named is m7GpppN-capped luciferase mRNA reporter. As to the kind of experiment: In vitro HeLa cell extract translation system, translation inhibition. Format: biochemical. Conditions: concentration not given. The procedure: In one embodiment, the compounds provided herein were assayed for translation inhibition activity using an in vitro HeLa cell extract translation system with an m7GpppN-capped luciferase mRNA reporter.

[7] abbreviates: IV 5 mg/kg, read-out: IV Administration (5 mg/kg) C0.
Setting [8] is: IV 5 mg/kg, read-out: IV Administration (5 mg/kg) T½ (converted).
[9] abbreviates: PO 25 mg/kg, read-out: PO Administration (25 mg/kg) C0.

Consider `Cc1c(NS(=O)(=O)c2c(C(C)C)cc(C(C)C)cc2C(C)C)cc(C(F)(F)F)cc1C(F)(F)F` [Compound 2, N-[2-Methyl-3,5-bis(trifluoromethyl)phenyl]-2,4,6-triisopropyl-benzenesulfonamide], for which the IC50 in data set [1] came out at 2 µM; in data set [2], 6 µM; in data set [3], 5 µM. Moreover, the C0 in data set [4] (setting [7]) is 53700 ng/mL; in data set [4] (setting [9]), 3610 ng/mL; in data set [5] (setting [7]), 68900 ng/mL; in data set [5] (setting [9]) it was 27600 ng/mL. For the same molecule, the half-life in data set [4] (setting [8]) is 2.9 h; in data set [4] (PO 25 mg/kg, read-out: PO Administration (25 mg/kg) T½ (converted)), 2.4 h; in data set [5] (setting [8]) it was 1.6 h; in data set [5] (PO 25 mg/kg, read-out: PO Administration (25 mg/kg) T½), above 6 h.

`CC(C)c1cc(C(C)C)c(S(=O)(=O)Nc2cc(C(F)(F)F)cc(C(F)(F)F)c2Cl)c(C(C)C)c1` [Compound 3, N-[2-Chloro-3,5-bis(trifluoromethyl)phenyl]-2,4,6-triisopropyl-benzenesulfonamide]: the IC50 in data set [1] was 4.5 µM; in data set [2], 3 µM.

In data set [1], `CC(C)c1cc(C(C)C)c(NS(=O)(=O)c2cc(C(F)(F)F)cc(C(F)(F)F)c2)c(C(C)C)c1` [Compound 4, 3,5-Bis(trifluoromethyl)-N-(2,4,6-triisopropylphenyl)benzenesulfonamide] returned a half-inhibitory concentration (IC50) of 12 µM.

In turn, `CC(C)c1cc(C(C)C)c(S(=O)(=O)Nc2cc(C(F)(F)F)cc(C(F)(F)F)c2Br)c(C(C)C)c1` [Compound 5, N-[2-Bromo-3,5-bis(trifluoromethyl)phenyl]-2,4,6-triisopropyl-benzenesulfonamide] registered a concentration for half-maximal inhibition (IC50) in data set [1] of 5 µM.

Turning to `Cc1cc(C(C)(C)C)cc(C)c1S(=O)(=O)Nc1cc(C(F)(F)F)cc(C(F)(F)F)c1` [Compound 6, N-[3,5-Bis(trifluoromethyl)phenyl]-4-tert-butyl-2,6-dimethyl-benzenesulfonamide], the half-maximal inhibitory concentration (IC50) in data set [1] was 7 µM.

`CCc1cccc(CC)c1S(=O)(=O)Nc1cc(C(F)(F)F)cc(C(F)(F)F)c1C` [Compound 7, 2,6-Diethyl-N-[2-methyl-3,5-bis(trifluoromethyl)phenyl]benzenesulfonamide] displayed an IC50 in data set [1] of 2 µM.

The molecule `CCc1cccc(CC)c1S(=O)(=O)Nc1cc(C(F)(F)F)cc(C(F)(F)F)c1` [Compound 8, N-[3,5-Bis(trifluoromethyl)phenyl]-2,6-diethyl-benzenesulfonamide] displayed a concentration for half-maximal inhibition (IC50) in data set [1] of 1.5 µM.

With `Cc1cc(C(C)(C)C)cc(C)c1S(=O)(=O)Nc1cc(C(F)(F)F)cc(C(F)(F)F)c1C` [Compound 9, 4-Tert-butyl-2,6-dimethyl-N-[2-methyl-3,5-bis(trifluoromethyl)phenyl]benzenesulfonamide], in data set [1], the 50% inhibitory concentration (IC50) is 5 µM.

Take `Cc1cc(C(C)(C)C)cc(C)c1S(=O)(=O)Nc1cc(C(F)(F)F)cc(C(F)(F)F)c1Cl` [Compound 10, 4-Tert-butyl-N-[2-chloro-3,5-bis(trifluoromethyl)phenyl]-2,6-dimethyl-benzenesulfonamide]: the 50% inhibitory concentration (IC50) in data set [1] came out at 3 µM.

The molecule `O=S(=O)(Nc1cc(C(F)(F)F)cc(C(F)(F)F)c1)c1cc(C(F)(F)F)cc(C(F)(F)F)c1` [Reference compound 1] registered an IC50 in data set [1] above 20 µM.

For `O=S(=O)(Nc1cc(C(F)(F)F)cc(C(F)(F)F)c1)c1c(Cl)cccc1Cl` [Reference compound 2], in data set [1], the IC50 came to 10 µM.

With `N#Cc1ccc(NS(=O)(=O)c2cc(C(F)(F)F)cc(C(F)(F)F)c2)cc1Cl` [Reference compound 3], in data set [1], the half-maximal inhibitory concentration (IC50) was above 20 µM.

`Cc1cc(C)c(S(=O)(=O)Nc2cc(C(F)(F)F)cc(C(F)(F)F)c2)c(C)c1` [Reference compound 4] displayed a half-maximal inhibitory concentration (IC50) in data set [1] of 17 µM.

The molecule `Cc1c(C)c(C)c(S(=O)(=O)Nc2cc(C(F)(F)F)cc(C(F)(F)F)c2)c(C)c1C` [Reference compound 5] registered an IC50 in data set [1] above 20 µM.

The molecule `COc1ccc(OC)c(S(=O)(=O)Nc2cc(C(F)(F)F)cc(C(F)(F)F)c2)c1` [Reference compound 6] came in with an IC50 in data set [1] above 20 µM.

Take `CC(C)c1cc(C(C)C)c(S(=O)(=O)Nc2ccc(Br)cc2)c(C(C)C)c1` [Reference compound 7]: in data set [1], the IC50 worked out at 14 µM.

Molecule `Cc1ccc(C)c(NS(=O)(=O)c2c(C(C)C)cc(C(C)C)cc2C(C)C)c1` [Reference compound 8] gave an IC50 in data set [1] above 20 µM.

Turning to `CC(C)c1cc(C(C)C)c(S(=O)(=O)Nc2cccc(F)c2)c(C(C)C)c1` [Reference compound 9], the IC50 in data set [1] was above 20 µM.

As for `Cc1cc(C)c(NS(=O)(=O)c2c(C(C)C)cc(C(C)C)cc2C(C)C)c(C)c1` [Reference compound 10], the IC50 in data set [1] was above 20 µM.

In the case of `CC(C)c1cc(C(C)C)c(S(=O)(=O)Nc2ccccc2F)c(C(C)C)c1` [Reference compound 11], the IC50 in data set [1] was above 20 µM.

Turning to `Cc1c(Cl)cccc1NS(=O)(=O)c1c(C(C)C)cc(C(C)C)cc1C(C)C` [Reference compound 12], the IC50 in data set [1] was 19 µM.

In data set [1], `CC(=O)Nc1ccc(S(=O)(=O)Nc2cc(C(F)(F)F)cc(C(F)(F)F)c2)cc1` [Reference compound 13] came in with a half-maximal inhibitory concentration (IC50) above 20 µM.

Consider `C[C@@H]1C[C@@H]([C@H](O)CC2CC(=O)NC(=O)C2)C(=O)[C@@H](C)C1` [cycloheximide, reference compound], for which the “inhibition of luciferase activity (comparator)” value in data set [6] is 99.3%.
